Tests used:
[1] = system: HT-29, Human Colorectal; test: Cell proliferation 96-welled in vitro MTT assay, HT-29; type: cell-based; conditions: 72 hr incubation, triplicate
Description: (§1) In vitro Efficacy: The Compounds were tested in a Cell Proliferation 96-welled in vitro MTT assay
(§2) The tests were done in triplicate and the test samples included negative control, positive control and ACB compounds at several concentrations (10^−4 to 10^−8) in 0.4% DMSO/DW medium. The incubation time was 72 hr and the IC50 was calculated from the generated inhibition curves.

[2] = system: NCI-H460 human non-small cell lung cancer; test: NCI-H460 human non-small cell lung cancer nude mice xenograft model; type: in vivo, BALB/c nude mice; conditions: for Tumor Weight / Tumor Inhibitory Growth Weight: after four weeks; for Tumor Weight: twice every week, model 3.08 ± 0.88; for effect on nude mice xenograft NCI-H460 human non-small cell lung cancer growth (in words): mouse, in vivo; for dose dependence of anticancer effect (in words): two dosages per compound
Text: In this study the NCI-H460 human non-small cell lung cancer nude mice xenograft model was established and applied for in vivo anti-cancer activity evaluation of three compounds of the invention.
(§3) BALB/c nude mice, were provided by Shanghai SLAC Experimental Animal Co., Ltd. (Experimental animal production license:SCXK (Shanghai) 2003-0003; Experimental animal application license:SYXK (Jiangsu) 2002-0053). The ages of the mice was 35-40 days; their body weight was 18-22 g; half of the mice were female and the other half were male. Eight nude mice were used per group.
NCI-H460 human non-small cell lung cancer nude mice xenograft model was established by s.c. injection of 1×10^6 NCI-H460 cells into nude mice axilla. After formation of tumor the xenograft was passaged for three generations in nude mice.
(§4) The tumor growing in Log phase was isolated from nude mice and sliced into 1.5 mm^3 particles. Under SPF conditions, the tumor particles were inoculated s.c. of nude mice right axilla. The xenografted tumor was measured the length and width by vernier caliper. Nude mice were randomly divided into eight groups when the bearing tumor reached 100-300mm^3 volume. Tumor length and width were measured twice every week to dynamic evaluate the anticancer activity of the tested compounds. Compound 1 was given by i.p. twice every week, compound 2 was given by i.v. twice every week, compound 3 was given by i.v. twice every week, control Topotecan was given by i.v. twice every week. In model group saline was give i.v. twice every week. After four weeks drug administration, nude mice were sacrificed and tumor was isolated by surgery for weight detection.
Tumor volume (TV) was calculated by the following formula: TV=1/2×a×b2 a and b represent length and width, respectively.

[3] = system: P388, Mouse Lymphoma; test: Cell proliferation 96-welled in vitro MTT assay, P388; type: cell-based; conditions: 72 hr incubation, triplicate
Description: as §1, §2

[4] = system: Lewis Lung, mouse lung; test: Cell proliferation 96-welled in vitro MTT assay, Lewis Lung; type: cell-based; conditions: Lewis lung carcinoma, 72 hr incubation, triplicate
Description: as §1, §2

[5] = system: MCF-7, Human Breast; test: Cell proliferation 96-welled in vitro MTT assay, MCF-7; type: cell-based; conditions: MCF7, 72 hr incubation, triplicate
Description: as §1, §2

[6] = Body weight of nude mice in the NCI-H460 xenograft study; type: in vivo, BALB/c nude mice; conditions: after four weeks, twice every week, model 22.07 ± 1.68
Text: as §3, §4

[7] = 0.5 week, Dosage 1: topotecan 2, Compound 1 0.625, Compound 2 5, Compound 3 1.5625 mg/kg, X ± SD, n = 8
[8] = 0.5 week, Dosage 2: Compound 1 0.3125, Compound 2 2.5, Compound 3 0.78125 mg/kg, X ± SD, n = 8
[9] = 1 week, Dosage 1: topotecan 2, Compound 1 0.625, Compound 2 5, Compound 3 1.5625 mg/kg
[10] = 1 week, Dosage 2: Compound 1 0.3125, Compound 2 2.5, Compound 3 0.78125 mg/kg
[11] = 1.5 weeks, Dosage 1: topotecan 2, Compound 1 0.625, Compound 2 5, Compound 3 1.5625 mg/kg
[12] = 1.5 weeks, Dosage 2: Compound 1 0.3125, Compound 2 2.5, Compound 3 0.78125 mg/kg
[13] = 2 weeks, Dosage 1: topotecan 2, Compound 1 0.625, Compound 2 5, Compound 3 1.5625 mg/kg
[14] = 2 weeks, Dosage 2: Compound 1 0.3125, Compound 2 2.5, Compound 3 0.78125 mg/kg
[15] = 2.5 weeks, Dosage 1: topotecan 2, Compound 1 0.625, Compound 2 5, Compound 3 1.5625 mg/kg
[16] = 2.5 weeks, Dosage 2: Compound 1 0.3125, Compound 2 2.5, Compound 3 0.78125 mg/kg
[17] = 3 weeks, Dosage 1: topotecan 2, Compound 1 0.625, Compound 2 5, Compound 3 1.5625 mg/kg
[18] = 3 weeks, Dosage 2: Compound 1 0.3125, Compound 2 2.5, Compound 3 0.78125 mg/kg
[19] = 3.5 weeks, Dosage 1: topotecan 2, Compound 1 0.625, Compound 2 5, Compound 3 1.5625 mg/kg
[20] = 3.5 weeks, Dosage 2: Compound 1 0.3125, Compound 2 2.5, Compound 3 0.78125 mg/kg
[21] = 4 weeks, Dosage 1: topotecan 2, Compound 1 0.625, Compound 2 5, Compound 3 1.5625 mg/kg
[22] = 4 weeks, Dosage 2: Compound 1 0.3125, Compound 2 2.5, Compound 3 0.78125 mg/kg
[23] = Dosage 1: topotecan 2 i.v., Compound 1 0.625 i.p., Compound 2 5 i.v., Compound 3 1.5625 i.v. (mg/kg)
[24] = Dosage 2: Compound 1 0.3125 i.p., Compound 2 2.5 i.v., Compound 3 0.78125 i.v. (mg/kg)
[25] = higher dosage: compound 3 1.5625 mg/kg i.v., compound 2 5 mg/kg i.v., compound 1 0.625 mg/kg i.p., topotecan 2 mg/kg i.v.
[26] = lower dosage: compound 3 0.78125 mg/kg i.v., compound 2 2.5 mg/kg i.v., compound 1 0.3125 mg/kg i.p.

CCC1(OC(=O)CNC(=O)/C=C\C(=O)O)C(=O)OCc2c1cc1n(c2=O)Cc2cc3ccccc3nc2-1 (stereo not shown) [Compound 1]
IC50 [1]: 44.3 µM | Tumor Volume [2, 7]: 220.9 mm3 | Tumor Volume [2, 8]: 194.9 mm3 | Tumor Volume [2, 9]: 504.2 mm3 | Tumor Volume [2, 10]: 560.8 mm3 | Tumor Volume [2, 11]: 706.7 ± 450.3 mm3 | Tumor Volume [2, 12]: 766.0 ± 480.3 mm3 | Tumor Volume [2, 13]: 1104.7 ± 759.6 mm3 | Tumor Volume [2, 14]: 1245.7 ± 585.6 mm3 | Tumor Volume [2, 15]: 1367.1 ± 880.2 mm3 | Tumor Volume [2, 16]: 1459.9 ± 793.3 mm3 | Tumor Volume [2, 17]: 1566.7 ± 867.8 mm3 | Tumor Volume [2, 18]: 1638.9 ± 827.1 mm3 | Tumor Volume [2, 19]: 1798.2 ± 767.2 mm3 | Tumor Volume [2, 20]: 1909.7 ± 464.4 mm3 | Tumor Volume [2, 21]: 2088.1 mm3 | Tumor Volume [2, 22]: 2209.8 mm3 | Tumor Weight [2, 23]: 1.77 ± 0.73 g | Tumor Weight [2, 24]: 1.85 ± 0.75 g | Tumor Inhibitory Growth Weight [2, 23]: 42.5 | Tumor Inhibitory Growth Weight [2, 24]: 39.9 | inhibitory rate [2, 25]: 42.5% | inhibitory rate [2, 26]: 39.9% | effect on nude mice xenograft NCI-H460 human non-small cell lung cancer growth (in words) [2]: could inhibit | dose dependence of anticancer effect (in words) [2]: dose-dependent anticancer effect | IC50 [3]: 10.9 µM | IC50 [4]: 6.34 µM | IC50 [5]: 20.4 µM | Ending Body Weight [6, 23]: 18.86 ± 1.60 g | Ending Body Weight [6, 24]: 18.59 ± 1.46 g

CCCS(=O)(=O)Oc1ccc2nc3c(cc2c1CN(C)C)Cn1c-3cc2c(c1=O)COC(=O)C2(CC)OC(=O)CNC(=O)/C=C\C(=O)O (stereo not shown) [Compound 2]
IC50 [1]: 50.8 µM | Tumor Volume [2, 7]: 205.2 mm3 | Tumor Volume [2, 8]: 182.6 mm3 | Tumor Volume [2, 9]: 413.8 mm3 | Tumor Volume [2, 10]: 472.2 mm3 | Tumor Volume [2, 11]: 602.1 ± 339.3 mm3 | Tumor Volume [2, 12]: 706.8 ± 360.0 mm3 | Tumor Volume [2, 13]: 733.7 ± 497.0 mm3 | Tumor Volume [2, 14]: 861.1 ± 523.9 mm3 | Tumor Volume [2, 15]: 950.0 ± 578.0 mm3 | Tumor Volume [2, 16]: 1084.9 ± 536.3 mm3 | Tumor Volume [2, 17]: 1147.2 ± 598.0 mm3 | Tumor Volume [2, 18]: 1269.1 ± 644.1 mm3 | Tumor Volume [2, 19]: 1632.9 ± 752.6 mm3 | Tumor Volume [2, 20]: 1841.8 ± 859.5 mm3 | Tumor Volume [2, 21]: 1639.4 mm3 | Tumor Volume [2, 22]: 2029.4 mm3 | Tumor Weight [2, 23]: 1.55 ± 0.51 g | Tumor Weight [2, 24]: 1.75 ± 0.90 g | Tumor Inhibitory Growth Weight [2, 23]: 49.7 | Tumor Inhibitory Growth Weight [2, 24]: 43.2 | inhibitory rate [2, 25]: 49.7% | inhibitory rate [2, 26]: 43.2% | effect on nude mice xenograft NCI-H460 human non-small cell lung cancer growth (in words) [2]: could inhibit | dose dependence of anticancer effect (in words) [2]: dose-dependent anticancer effect | IC50 [3]: 10.6 µM | IC50 [4]: 12.8 µM | IC50 [5]: 30.8 µM | Ending Body Weight [6, 23]: 18.93 ± 1.49 g | Ending Body Weight [6, 24]: 17.82 ± 1.06 g

CC[C@@]1(OC(=O)CNC(=O)/C=C\C(=O)O)C(=O)OCc2c1cc1n(c2=O)Cc2cc3c(CN(C)C)c(OS(=O)(=O)C(C)C)ccc3nc2-1 [Compound 3]
IC50 [1]: 14.3 µM | Tumor Volume [2, 7]: 237.9 mm3 | Tumor Volume [2, 8]: 211.8 mm3 | Tumor Volume [2, 9]: 392.9 mm3 | Tumor Volume [2, 10]: 455.2 mm3 | Tumor Volume [2, 11]: 547.2 ± 390.0 mm3 | Tumor Volume [2, 12]: 624.6 ± 371.5 mm3 | Tumor Volume [2, 13]: 719.6 ± 315.8 mm3 | Tumor Volume [2, 14]: 795.4 ± 389.0 mm3 | Tumor Volume [2, 15]: 958.4 ± 486.2 mm3 | Tumor Volume [2, 16]: 999.8 ± 562.9 mm3 | Tumor Volume [2, 17]: 1093.2 ± 692.2 mm3 | Tumor Volume [2, 18]: 1291.5 ± 564.4 mm3 | Tumor Volume [2, 19]: 1400.4 ± 670.6 mm3 | Tumor Volume [2, 20]: 1553.2 ± 706.3 mm3 | Tumor Volume [2, 21]: 1588.3 mm3 | Tumor Volume [2, 22]: 1908.5 mm3 | Tumor Weight [2, 23]: 1.36 ± 0.50 g | Tumor Weight [2, 24]: 1.65 ± 0.86 g | Tumor Inhibitory Growth Weight [2, 23]: 55.8 | Tumor Inhibitory Growth Weight [2, 24]: 46.4 | inhibitory rate [2, 25]: 55.8% | inhibitory rate [2, 26]: 46.4% | effect on nude mice xenograft NCI-H460 human non-small cell lung cancer growth (in words) [2]: could inhibit | dose dependence of anticancer effect (in words) [2]: dose-dependent anticancer effect | IC50 [3]: 0.0847 µM | IC50 [4]: 0.929 µM | IC50 [5]: 9.79 µM | Ending Body Weight [6, 23]: 19.63 ± 0.77 g | Ending Body Weight [6, 24]: 18.42 ± 1.04 g

CC[C@@]1(O)C(=O)OCc2c1cc1n(c2=O)Cc2cc3c(CN(C)C)c(O)ccc3nc2-1 [topotecan, Topotecan, reference compound]
IC50 [1]: 22.9 µM | Tumor Volume [2, 7]: 209.6 mm3 | Tumor Volume [2, 9]: 574.0 mm3 | Tumor Volume [2, 11]: 759.8 ± 419.9 mm3 | Tumor Volume [2, 13]: 933.1 ± 496.8 mm3 | Tumor Volume [2, 15]: 1220.7 ± 611.4 mm3 | Tumor Volume [2, 17]: 1273.3 ± 685.1 mm3 | Tumor Volume [2, 19]: 1413.0 ± 717.0 mm3 | Tumor Volume [2, 21]: 1639.9 mm3 | Tumor Weight [2, 23]: 1.58 ± 0.74 g | Tumor Inhibitory Growth Weight [2, 23]: 48.7 | inhibitory rate [2, 25]: 48.7% | IC50 [3]: 18.5 µM | IC50 [4]: 11 µM | IC50 [5]: 22.2 µM | Ending Body Weight [6, 23]: 17.32 ± 1.18 g

— US20080255175A1, “Anti-cancer agents, compositions and methods of treating cancers” (priority 2007, published 2008)
